Test results from patent US10167262B2, “Herbicidal substituted 3-arylpyrazoles” (FMC CORPORATION, priority 2014, dated 2019).

How the values were obtained:
Experiment in all cases: Test E pre-/postemergence greenhouse test, plant response rating 0-100
Assay type in all cases: in vivo
Conditions in all cases: Preemergence, scale 0 to 100
[1] = system: kochia (Kochia scoparia)
Method in brief: (§1)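 Greenhouse pot assay, two application timings. Pre- to silt loam at planting; post- to 1–4-leaf plants. Visual 0–100 score at 14–21 d.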

[2] = system: velvetleaf (Abutilon theophrasti)
Method in brief: as §1

[3] = system: surinam grass (Brachiaria decumbens)
Method in brief: as §1

[4] = system: ragweed (common ragweed, Ambrosia elatior)
Method in brief: as §1

[5] = system: giant foxtail (Setaria faberii)

Structure (SMILES)	Kochia plant response rating ([1]; 31 g ai/ha)	Kochia plant response rating ([1]; 62 g ai/ha)	Kochia plant response rating ([1]; 125 g ai/ha)	Kochia plant response rating ([1]; 250 g ai/ha)	Kochia plant response rating ([1]; 500 g ai/ha)	Velvetleaf plant response rating ([2]; 31 g ai/ha)	Velvetleaf plant response rating ([2]; 62 g ai/ha)	Velvetleaf plant response rating ([2]; 125 g ai/ha)	Velvetleaf plant response rating ([2]; 250 g ai/ha)	Velvetleaf plant response rating ([2]; 500 g ai/ha)	Surinam Grass plant response rating ([3]; 31 g ai/ha)	Surinam Grass plant response rating ([3]; 62 g ai/ha)	Surinam Grass plant response rating ([3]; 125 g ai/ha)	Surinam Grass plant response rating ([3]; 250 g ai/ha)	Surinam Grass plant response rating ([3]; 500 g ai/ha)	Ragweed plant response rating ([4]; 31 g ai/ha)	Ragweed plant response rating ([4]; 62 g ai/ha)	Ragweed plant response rating ([4]; 125 g ai/ha)	Ragweed plant response rating ([4]; 250 g ai/ha)	Ragweed plant response rating ([4]; 500 g ai/ha)	other results
COCC(=O)n1cc(C(=O)c2ccccc2)c(-c2cc(Cl)cc(Cl)c2)n1 [Compound 16, 1-[4-benzoyl-3-(3,5-dichlorophenyl)-1H-pyrazol-1-yl]-2-methoxyethanone]	0	0	0	50	75	0	40	85	100	100	0	0	0	0	0	0	0	85	90	98	Foxtail, Giant plant response rating ([5]; 31 g ai/ha): 0; Foxtail, Giant plant response rating ([5]; 62 g ai/ha): 0; Foxtail, Giant plant response rating ([5]; 125 g ai/ha): 0; Foxtail, Giant plant response rating ([5]; 250 g ai/ha): 0; Foxtail, Giant plant response rating ([5]; 500 g ai/ha): 0
O=Cn1cc(C(=O)c2ccccc2)c(-c2cc(Cl)cc(Cl)c2)n1 [Compound 28]	15	20	40	40	85	0	0	0	40	100	0	0	0	0	0	0	0	30	65	70	Foxtail, Giant plant response rating ([5]; 31 g ai/ha): 0; Foxtail, Giant plant response rating ([5]; 62 g ai/ha): 0; Foxtail, Giant plant response rating ([5]; 125 g ai/ha): 20; Foxtail, Giant plant response rating ([5]; 250 g ai/ha): 0; Foxtail, Giant plant response rating ([5]; 500 g ai/ha): 0
